Source: PubChem BioAssay AID328 (DTP/NCI, 2004)
Several values for one entry are separate records, joined by “and”; a condition that tells them apart may be missing. Equal entries are not always repeated. Toxic doses and inconclusive results are not listed.

Test system: BDF1 mice, P388 leukemia ip, median survival T/C
Assay: NCI In Vivo Anticancer Drug Screen. Data for tumor model P388 Leukemia (intraperitoneal) in B6D2F1 (BDF1) mice
Conditions: endpoint: median survival time, higher = longer survival
Procedure: The antitumor activity of compounds was measured in mice bearing transplantable tumors. Survival or tumor size were measured and the results are expressed as the measurement made in the treated group (T) divided by the measurement made in the vehicle treated control group (C). The tumor model used in this assay is P388 Leukemia (intraperitoneal) in B6D2F1 (BDF1) mice

[1] = dose: 200.0 mg/kg/injection, schedule: Q04DX003 (ip), vehicle: saline with Tween-80
[2] = dose: 400.0 mg/kg/injection, schedule: Q04DX003 (ip), vehicle: saline with Tween-80
[3] = dose: 12.5 mg/kg/injection, schedule: Q01DX009 (ip), vehicle: saline with Tween-80
[4] = dose: 25.0 mg/kg/injection, schedule: Q01DX009 (ip), vehicle: saline with Tween-80
[5] = dose: 6.25 mg/kg/injection, schedule: Q01DX009 (ip), vehicle: saline with Tween-80
[6] = dose: 100.0 mg/kg/injection, schedule: Q04DX003 (ip), vehicle: saline with Tween-80
[7] = dose: 100.0 mg/kg/injection, schedule: Q01DX001 (ip), vehicle: saline with Tween-80

With Cn1cnc([N+](=O)[O-])c1[Se]c1ncnc2c1ccn2C1OC(CO)C(O)C1O (configuration not stated) the T/C (dose: 6.25 mg/kg/injection, schedule: Q01DX009 (ip), vehicle: saline) was 107 % of control, the T/C (dose: 12.5 mg/kg/injection, schedule: Q01DX009 (ip), vehicle: saline) was 88 % of control and the T/C (dose: 25.0 mg/kg/injection, schedule: Q01DX009 (ip), vehicle: saline) was 102 % of control. The T/C (dose: 100.0 mg/kg/injection, schedule: Q04DX003 (ip), vehicle: saline) was 100 % of control and the T/C (dose: 200.0 mg/kg/injection, schedule: Q04DX003 (ip), vehicle: saline) was 104 % of control.

In the case of CCC1CN1P(=O)(Oc1ccc2ccccc2c1)N1CC1CC (configuration not stated), the T/C [1] is reported as 245 % of control and the T/C [2] is reported as 86 % of control.

CC1(C)N=C(N)N=C(N)N1c1ccc(CCC(=O)Nc2ccc(S(=O)(=O)F)cc2)cc1 was tested, and the T/C (dose: 0.88 mg/kg/injection, schedule: Q01DX009 (ip), vehicle: saline with Tween-80) was 108 % of control, the T/C (dose: 1.32 mg/kg/injection, schedule: Q01DX009 (ip), vehicle: saline with Tween-80) was 112 % of control and the T/C (dose: 2.0 mg/kg/injection, schedule: Q01DX009 (ip), vehicle: saline with Tween-80) was 116 % of control. For the same compound, the T/C [3] was 150 % of control, the T/C [4] was 163 % of control and the T/C (dose: 44.0 mg/kg/injection, schedule: Q04DX003 (ip), vehicle: saline sonified) was 122 % of control. For the same compound, the T/C (dose: 50.0 mg/kg/injection, schedule: Q01DX009 (ip), vehicle: saline with Tween-80) was 159 % of control, the T/C (dose: 66.0 mg/kg/injection, schedule: Q04DX003 (ip), vehicle: saline sonified) was 111 % of control and the T/C (dose: 100.0 mg/kg/injection, schedule: Q01DX009 (ip), vehicle: saline sonified) was 240 % of control. The T/C (dose: 100.0 mg/kg/injection, schedule: Q04DX003 (ip), vehicle: saline sonified) was 111 % of control, the T/C (dose: 150.0 mg/kg/injection, schedule: Q04DX003 (ip), vehicle: saline sonified) was 122 % of control and the T/C (dose: 200.0 mg/kg/injection, schedule: Q01DX009 (ip), vehicle: saline sonified) was 95 % of control. For the same compound, the T/C (dose: 400.0 mg/kg/injection, schedule: Q01DX009 (ip), vehicle: saline sonified) was 90 % of control.

In the case of CC(C)C(C)/C=C\C(C)C1CCC2C3=CCC4CC(O)CCC4(C)C3CCC21C (configuration not stated), the T/C [5] is reported as 100 % of control, the T/C [3] is reported as 101 % of control and the T/C [4] is reported as 94 % of control.

For O=C(Nc1cccc(C2=NCCCN2)c1)Nc1ccc(NC(=O)Nc2cccc(C3=NCCCN3)c2)c(Cl)c1, the T/C (dose: 10.0 mg/kg/injection, schedule: Q01DX009 (ip), vehicle: saline with Tween-80) was 227 % of control, the T/C (dose: 11.0 mg/kg/injection, schedule: Q04DX003 (ip), vehicle: saline with Tween-80) was 182 % of control and the T/C (dose: 17.0 mg/kg/injection, schedule: Q04DX003 (ip), vehicle: saline with Tween-80) was 217 % of control. The T/C (dose: 20.0 mg/kg/injection, schedule: Q01DX009 (ip), vehicle: saline with Tween-80) was 204 % of control, the T/C (dose: 26.0 mg/kg/injection, schedule: Q04DX003 (ip), vehicle: saline with Tween-80) was 195 % of control and 209 % of control and the T/C (dose: 40.0 mg/kg/injection, schedule: Q04DX003 (ip), vehicle: saline with Tween-80) was 272 % of control. The T/C (dose: 60.0 mg/kg/injection, schedule: Q04DX003 (ip), vehicle: saline with Tween-80) was 272 % of control.

CC1CN=C(c2ccc(NC(=O)Nc3ccc(C(=O)Nc4ccc(C5=NCC(C)N5)cc4)cc3)cc2)N1 (configuration not stated) was tested, and the T/C (dose: 66.0 mg/kg/injection, schedule: Q04DX003 (ip), vehicle: saline with Tween-80) was 168 % of control and 209 % of control, the T/C [6] was 90 % of control and 222 % of control and the T/C (dose: 150.0 mg/kg/injection, schedule: Q04DX003 (ip), vehicle: saline with Tween-80) was 100 % of control.

For CCc1ccc(C(=O)C2CC2)cc1, the T/C [6] was 104 % of control, the T/C (dose: 133.0 mg/kg/injection, schedule: Q01DX008 (ip), vehicle: saline with Tween-80) was 108 % of control and the T/C (dose: 200.0 mg/kg/injection, schedule: Q01DX008 (ip), vehicle: saline with Tween-80) was 116 % of control. The T/C [1] was 112 % of control, the T/C (dose: 300.0 mg/kg/injection, schedule: Q01DX008 (ip), vehicle: saline with Tween-80) was 115 % of control and the T/C [2] was 104 % of control.

CCCCCCCCCCN1CCOCCOCCN(CCCCCCCCCC)CCOCCOCC1 was tested, and the T/C (dose: 1.56 mg/kg/injection, schedule: Q01DX005 (ip), vehicle: saline with Tween-80) was 113 % of control, the T/C (dose: 3.13 mg/kg/injection, schedule: Q01DX005 (ip), vehicle: saline with Tween-80) was 103 % of control and the T/C (dose: 6.25 mg/kg/injection, schedule: Q01DX005 (ip), vehicle: saline with Tween-80) was 113 % of control.

In the case of C1=CC2c3ccccc3C1c1ccccc12, the T/C (dose: 100.0 mg/kg/injection, schedule: Q01DX007 (sc), vehicle: olive oil, sesame oil, peanut oil) is reported as 91 % of control, the T/C (dose: 100.0 mg/kg/injection, schedule: Q04DX003 (sc), vehicle: olive oil, sesame oil, peanut oil) is reported as 100 % of control and the T/C (dose: 200.0 mg/kg/injection, schedule: Q01DX007 (sc), vehicle: olive oil, sesame oil, peanut oil) is reported as 104 % of control. For the same compound, the T/C (dose: 200.0 mg/kg/injection, schedule: Q04DX003 (sc), vehicle: olive oil, sesame oil, peanut oil) was 90 % of control, the T/C (dose: 400.0 mg/kg/injection, schedule: Q01DX007 (sc), vehicle: olive oil, sesame oil, peanut oil) was 95 % of control and the T/C (dose: 400.0 mg/kg/injection, schedule: Q04DX003 (sc), vehicle: olive oil, sesame oil, peanut oil) was 110 % of control.

In the case of CC(C)(C)[Si](OC(=O)N(CCCl)CCCl)(c1ccccc1)c1ccccc1, the T/C (dose: 50.0 mg/kg/injection, schedule: Q01DX001 (ip), vehicle: saline with Tween-80) is reported as 100 % of control and the T/C [7] is reported as 118 % of control and 124 % of control.

In the case of CC(=O)CC(C)=O.CC(=O)CC(C)=O.[Co], the T/C [5] is reported as 96 % of control, the T/C (dose: 6.25 mg/kg/injection, schedule: Q04DX003 (ip), vehicle: saline with Tween-80) is reported as 88 % of control and the T/C [3] is reported as 112 % of control. The T/C (dose: 12.5 mg/kg/injection, schedule: Q04DX003 (ip), vehicle: saline with Tween-80) was 92 % of control, the T/C [4] was 120 % of control and the T/C (dose: 25.0 mg/kg/injection, schedule: Q04DX003 (ip), vehicle: saline with Tween-80) was 92 % of control.

With CCCn1c2nc(=O)n(C)c(=O)c-2[n+]([O-])c2ccccc21 the T/C (dose: 6.25 mg/kg/injection, schedule: Q01DX001 (ip), vehicle: saline with Tween-80) was 101 % of control and the T/C (dose: 12.5 mg/kg/injection, schedule: Q01DX001 (ip), vehicle: saline with Tween-80) was 99 % of control.

CC1(C)C/C(=C\c2ccc(Cl)cc2)C(=O)c2ccccc21 was tested, and the T/C (dose: 100.0 mg/kg/injection, schedule: Q04DX003 (ip), vehicle: Klucel (hydroxypropylcellulose) (HPC)) was 100 % of control, the T/C (dose: 200.0 mg/kg/injection, schedule: Q04DX003 (ip), vehicle: Klucel (hydroxypropylcellulose) (HPC)) was 100 % of control and the T/C (dose: 400.0 mg/kg/injection, schedule: Q04DX003 (ip), vehicle: Klucel (hydroxypropylcellulose) (HPC)) was 91 % of control.

With COc1ccc(C(CC(C)=O)c2c(O)c3ccccc3oc2=O)cc1OC (configuration not stated) the T/C (dose: 3.12 mg/kg/injection, schedule: Q04DX003 (ip), vehicle: water) was 98 % of control, the T/C (dose: 6.25 mg/kg/injection, schedule: Q01DX009 (ip), vehicle: water) was 100 % of control and the T/C (dose: 6.25 mg/kg/injection, schedule: Q04DX003 (ip), vehicle: water) was 101 % of control. For the same compound, the T/C (dose: 12.5 mg/kg/injection, schedule: Q01DX009 (ip), vehicle: water) was 100 % of control, the T/C (dose: 12.5 mg/kg/injection, schedule: Q04DX003 (ip), vehicle: water) was 100 % of control and the T/C (dose: 25.0 mg/kg/injection, schedule: Q04DX003 (ip), vehicle: water) was 105 % of control. The T/C (dose: 50.0 mg/kg/injection, schedule: Q04DX003 (ip), vehicle: water) was 100 % of control, the T/C (dose: 100.0 mg/kg/injection, schedule: Q04DX003 (ip), vehicle: water) was 100 % of control and 102 % of control and the T/C (dose: 200.0 mg/kg/injection, schedule: Q04DX003 (ip), vehicle: water) was 101 % of control. For the same compound, the T/C (dose: 400.0 mg/kg/injection, schedule: Q04DX003 (ip), vehicle: water) was 90 % of control.

With COC(=O)c1cc(Cl)ccc1OCC(=O)NCc1ccc(Cl)cc1 the T/C [7] was 100 % of control, the T/C (dose: 200.0 mg/kg/injection, schedule: Q01DX001 (ip), vehicle: saline with Tween-80) was 95 % of control and the T/C (dose: 400.0 mg/kg/injection, schedule: Q01DX001 (ip), vehicle: saline with Tween-80) was 90 % of control.

For COC(=O)c1ccc(N)c(C(Sc2ccccc2)c2ccccc2)c1 (configuration not stated), the T/C (dose: 50.0 mg/kg/injection, schedule: Q04DX002 (ip), vehicle: saline with Tween-80) was 98 % of control, the T/C (dose: 100.0 mg/kg/injection, schedule: Q04DX002 (ip), vehicle: saline with Tween-80) was 90 % of control and the T/C (dose: 200.0 mg/kg/injection, schedule: Q04DX002 (ip), vehicle: saline with Tween-80) was 99 % of control.
